One data set has as its system A. baumannii ATCC 19606. Kind of data set: microbe, parasite or virus in culture. How it is done:
(§1) Briefly, 10^5 bacterial cells were incubated with serially diluted EPs (0–64 μmol l^−1) at 37 °C. Bacterial growth was assessed by measuring the optical density at 600 nm in a microplate reader at 1 day post-treatment. […] Secondary structure fractions were calculated using the BeStSel server. fH and fβ stand for helical and β fractions, respectively.

Data set [1] relates to E. faecium ATCC 700221 (VRE). Description: microbe, parasite or virus in culture. The settings on record: for MIC E. faecium ATCC 700221 – VRE (+): ATCC 700221, 24 h; for MIC, E. faecium ATCC 700221 - VRE (+): Fig 2a source data, Gram-positive, broth microdilution. How it is done: as §1
For orientation: Dilution methods test growth across graded concentrations, often in twofold steps.

In a further data set the test system is K. pneumoniae ATCC 13883. Description: microbe, parasite or virus in culture. As to conditions: for MIC K. pneumoniae ATCC 13883 (−): ATCC 13883, 24 h; for MIC, K. pneumoniae ATCC 13883 (-): Fig 2a source data, Gram-negative, broth microdilution. How it is done: as §1
The subject of the next data set is S. aureus ATCC 12600. Description: microbe, parasite or virus in culture. How it is done: as §1
In another data set the test system is E. coli ATCC 11775. Kind of data set: microbe, parasite or virus in culture. Also noted: MIC, E. coli ATCC 11775 (-): unit not given beside the values. As to conditions: for MIC, E. coli ATCC 11775 (-): Fig 2a source data, Gram-negative, broth microdilution. How it is done: as §1
Another data set deals with E. coli AIC221. Description: microbe, parasite or virus in culture. Details: MIC, E. coli AIC221 (-): unit not given beside the values. As to conditions: for MIC E. coli AIC221 (−): AIC221, 24 h; for MIC, E. coli AIC221 (-): Fig 2a source data, Gram-negative, broth microdilution. How it is done: as §1
Data set [2] concerns E. coli AIC222 (colistin-resistant, CRE). Description: microbe, parasite or virus in culture. Details: MIC, E. coli AIC222 - CRE (-): unit not given beside the values. As to conditions: Fig 2a source data; Gram-negative, CRE; broth microdilution. How it is done: as §1
The subject of the next data set is P. aeruginosa PAO1. Description: microbe, parasite or virus in culture. Details: MIC, P. aeruginosa PAO1 (-): unit not given beside the values. How it is done: as §1
Another data set concerns P. aeruginosa PA14. Description: microbe, parasite or virus in culture. Details: MIC, P. aeruginosa PA14 (-): unit not given beside the values. How it is done: as §1
The subject of data set [3] is S. aureus ATCC BAA-1556 (MRSA). Description: microbe, parasite or virus in culture. Details: MIC, S. aureus ATCC BAA-1556 - MRSA (+): unit not given beside the values. How it is done:
as §1

In the next data set the test system is A. baumannii. Description: Cytoplasmic membrane fluidity, Laurdan generalized polarization. The settings on record: peptides at 100× MIC stock diluted 1:100, 30 min, λex 350, λem 440/490 nm; mean of 3 independent experiments. In kind it is cell-based, Acinetobacter baumannii. From the text:
Fig. 4 Mechanism of action, haemolytic activity and cytotoxicity of antibiotics from the archaeome. […] The fluorescence probe NPN was used to assess membrane permeabilization (a) induced by the tested EPs (Extended Data Fig. 6a). The fluorescence probe DiSC3-5 was used to evaluate membrane depolarization (b) caused by archaeasins (Extended Data Fig. 6b). The shown values represent the relative fluorescence of both probes, with nonlinear fitting compared with the baseline of the untreated control (buffer + bacteria + fluorescence dye) and benchmarked against the antibiotics polymyxin B and levofloxacin. c, Laurdan generalized polarization over time in A. baumannii treated with archaeasins. […] Higher generalized polarization values indicate increased membrane rigidity, whereas lower values reflect increased membrane fluidity. Benzyl alcohol was used as a positive control for membrane fluidization, and untreated cells served as a negative control. […] All experiments were performed in three independent replicates (Extended Data Fig. 7). The protein and peptide structures depicted in panels a and b were created with PyMOL Molecular Graphics System, v.3.0 (Schrödinger).

In data set [4] the test system is human red blood cells (RBCs). As to conditions: for HC50 (source data of Fig. 4) / HC50, peptide concentration leading to 50% RBC lysis: red cells of human, 4 h. How it is done:
To assess the potential toxicity of the synthesized archaeasins, we exposed them to human red blood cells (RBCs), a common method for evaluating the toxicity of antimicrobial agents[20],[26],[27].
To evaluate the release of haemoglobin from human erythrocytes upon treatment of each of the EPs, human RBCs were obtained from Zen-Bio (donor, blood type A^−) obtained from heparin anti-coagulated blood. RBCs were washed with PBS (pH 7.4) 4× by centrifugation at 800g for 10 min. Aliquots of 200-fold-diluted cells (75 μl) were mixed with peptide solution (0.78–100 μmol l^−1; 75 μl), and the mixture was incubated for 4 h at room temperature. After incubation, the plate was centrifuged at 1,300g for 10 min to precipitate cells and debris, and 100 μl of supernatant from each well was transferred to a new 96-well plate for absorbance reading (405 nm) using an automatic plate reader. The percentage of haemolysis was defined by comparison with negative control (samples containing PBS) and positive control (samples containing 1% (v/v) SDS in PBS solution). Haemolysis(%)=100×(absorbance405nmpeptide−absorbance405nmnegativecontrol)/(absorbance405nmpositivecontrol−absorbance405nmnegativecontrol)
All assays were performed in three independent biological replicates as indicated in each figure legend and in the Methods. […] In the skin abscess and thigh infection mouse models, we used six mice per group following established protocols approved by the University Laboratory of Animal Resources of the University of Pennsylvania.
Extended Data Fig. 7 Hemolytic activity of archaeasins. Hemolytic activity was assessed by exposing red blood cells to archaeasins, with lysis determined by absorbance readings after 4 h. The peptides were added to plates and subjected to a two-fold dilution series (ranging from 64 to 4 μmol L^−1) before exposure to the red blood cells. Source data

Where [5] appears, read: Fig 2a source data, Gram-negative, broth microdilution.

Converted amounts (≈) assume the structure as drawn. Peptide text beside a SMILES is read from it.

On to `CC[C@H](C)[C@H](NC(=O)[C@H](CC(C)C)NC(=O)[C@H](CC(C)C)NC(=O)[C@H](CCCNC(=N)N)NC(=O)[C@H](C)NC(=O)[C@H](CC(C)C)NC(=O)[C@H](Cc1ccc(O)cc1)NC(=O)CNC(=O)[C@H](C)NC(=O)CN)C(=O)N[C@@H](CCCNC(=N)N)C(=O)N[C@@H](CCCNC(=N)N)C(=O)N[C@@H](CO)C(=O)N[C@@H](CC(C)C)C(=O)N[C@@H](CCCNC(=N)N)C(=O)N[C@@H](CC(C)C)C(=O)N[C@@H](CC(C)C)C(=O)N[C@@H](CCCNC(=N)N)C(=O)N[C@@H](CCCNC(=N)N)C(=O)N[C@@H](CC(C)C)C(=O)O` [Archaeasin-78] (H-GAGYLARLLIRRSLRLLRRL-OH; N-terminus and C-terminus assumed), for which, in the data set on A. baumannii ATCC 19606, the “MIC, A. baumannii ATCC 19606 (-)” value was determined as 1. In addition, in data set [1], the “MIC E. faecium ATCC 700221 – VRE (+)” value came out at 1 µM (≈ 2.37 µg/mL) and the “MIC, E. faecium ATCC 700221 - VRE (+)” value is on record as 1. Also, in the data set on K. pneumoniae ATCC 13883, the “MIC K. pneumoniae ATCC 13883 (−)” value turned out to be 4 µM (≈ 9.47 µg/mL) and the “MIC, K. pneumoniae ATCC 13883 (-)” value is recorded as 4. Besides, the “MIC S. aureus ATCC 12600 (+)” value against S. aureus ATCC 12600 (ATCC 12600, 24 h) was 8 µmol/L (≈ 18.9 µg/mL). Also, the “MIC S. aureus ATCC 12600 (+)” value in the data set on S. aureus ATCC 12600 (Fig 2a source data, Gram-positive, broth microdilution) was 8. For the same compound, the “MIC, E. coli ATCC 11775 (-)” value in the data set with E. coli ATCC 11775 came out at 32. Also, in the data set on E. coli AIC221, the “MIC E. coli AIC221 (−)” value was found to be 1 µM (≈ 2.37 µg/mL) and the “MIC, E. coli AIC221 (-)” value is 1. For the same compound, in data set [2], the “MIC, E. coli AIC222 - CRE (-)” value turned out to be 4. Further, the “MIC, P. aeruginosa PAO1 (-)” value in the data set on P. aeruginosa PAO1 (setting [5]) came out at 8. For the same compound, in the data set with P. aeruginosa PAO1 (PAO1, 24 h), the “MIC P. aeruginosa PAO1 (−)” value came out at 8 µM (≈ 18.9 µg/mL). Besides, the “MIC, P. aeruginosa PA14 (-)” value with P. aeruginosa PA14 (setting [5]) is listed as 16. In the data set with P. aeruginosa PA14 (PA14, 24 h), the “MIC P. aeruginosa PA14 (−)” value amounted to 16 µM (≈ 37.9 µg/mL). For the same compound, in [3] (ATCC BAA-1556, 24 h), the “MIC S. aureus ATCC BAA-1556 – MRSA (+)” value was found to be 8 µM (≈ 18.9 µg/mL). In addition, the “MIC, S. aureus ATCC BAA-1556 - MRSA (+)” value in [3] (Fig 2a source data, Gram-positive, MRSA, broth microdilution) was 8. Also, the “Laurdan generalized polarization change of cytoplasmic membrane” value (“Laurdan generalized polarization change” below) with A. baumannii is recorded as “pronounced increases in generalized polarization values over time”. Further, in data set [4], the haemolytic effects entry is given as “did show haemolytic effects”; the “HC50 (source data of Fig. 4)” value is 5.537 µmol/L; the “HC50, peptide concentration leading to 50% RBC lysis” value stood at 6 µmol/L.

Turning to `CC[C@H](C)[C@H](N)C(=O)N[C@@H](CC(C)C)C(=O)NCC(=O)NCC(=O)N[C@@H](CCCCN)C(=O)N[C@@H](CC(C)C)C(=O)N[C@H](C(=O)N[C@@H](CCCCN)C(=O)N[C@@H](CCCCN)C(=O)N[C@@H](CO)C(=O)N[C@@H](CC(C)C)C(=O)N[C@@H](CCCCN)C(=O)N[C@@H](CC(C)C)C(=O)O)[C@@H](C)CC` [Archaeasin-21] (H-ILGGKLIKKSLKL-OH; N-terminus and C-terminus assumed), the “MIC, A. baumannii ATCC 19606 (-)” value against A. baumannii ATCC 19606 came out at 64. Further, in [1], the “MIC E. faecium ATCC 700221 – VRE (+)” value is 64 µM (≈ 90.3 µg/mL) and the “MIC, E. faecium ATCC 700221 - VRE (+)” value amounted to 64. Besides, in [2], the “MIC, E. coli AIC222 - CRE (-)” value is listed as 64. For the same compound, in the data set with A. baumannii, the “Laurdan generalized polarization change” value is given as “only modest or even decreasing generalized polarization shifts”.

For `CC[C@H](C)[C@H](N)C(=O)NCC(=O)N[C@@H](Cc1c[nH]c2ccccc12)C(=O)N[C@H](C(=O)N[C@@H](CO)C(=O)N[C@@H](CC(N)=O)C(=O)N[C@@H](CCCNC(=N)N)C(=O)N[C@H](C(=O)N[C@H](C(=O)N[C@@H](CC(C)C)C(=O)N[C@@H](CCCCN)C(=O)N[C@@H](CC(C)C)C(=O)N[C@@H](CC(C)C)C(=O)N[C@@H](CCCNC(=N)N)C(=O)N[C@@H](Cc1ccccc1)C(=O)N[C@@H](C)C(=O)N[C@@H](CCCCN)C(=O)N[C@@H](CC(N)=O)C(=O)N[C@@H](CCSC)C(=O)N[C@@H](CCCCN)C(=O)O)[C@@H](C)CC)C(C)C)[C@@H](C)CC` [Archaeasin-22] (H-IGWISNRVILKLLRFAKNMK-OH; N-terminus and C-terminus assumed), the “MIC, A. baumannii ATCC 19606 (-)” value against A. baumannii ATCC 19606 came out at 1. Moreover, in the data set on K. pneumoniae ATCC 13883, the “MIC K. pneumoniae ATCC 13883 (−)” value is 16 µM (≈ 38.4 µg/mL) and the “MIC, K. pneumoniae ATCC 13883 (-)” value is 16. Also, in the data set with E. coli ATCC 11775 (ATCC 11775, 24 h), the “MIC E. coli ATCC 11775 (−)” value stood at 16 µM (≈ 38.4 µg/mL). In the data set with E. coli ATCC 11775, the “MIC, E. coli ATCC 11775 (-)” value is 16. In addition, in the data set with E. coli AIC221, the “MIC E. coli AIC221 (−)” value came to 2 µM (≈ 4.8 µg/mL) and the “MIC, E. coli AIC221 (-)” value was determined as 2. The “MIC, E. coli AIC222 - CRE (-)” value in data set [2] is 4. In the data set with A. baumannii, the “Laurdan generalized polarization change” value was “only modest or even decreasing generalized polarization shifts”. Also, in [4], the “HC50 (source data of Fig. 4)” value worked out at 7.224 µmol/L and the “HC50, peptide concentration leading to 50% RBC lysis” value was found to be 7 µmol/L.

As for `CC[C@H](C)[C@H](NC(=O)[C@H](Cc1c[nH]c2ccccc12)NC(=O)[C@H](CCCCN)NC(=O)[C@H](CC(C)C)NC(=O)[C@H](CCCNC(=N)N)NC(=O)[C@H](C)NC(=O)[C@H](CCCNC(=N)N)NC(=O)[C@H](C)NC(=O)[C@H](CC(C)C)NC(=O)[C@H](Cc1c[nH]c2ccccc12)NC(=O)[C@@H](N)CC(C)C)C(=O)N[C@H](C(=O)O)[C@@H](C)O` [Archaeasin-57] (H-LWLARARLKWIT-OH; N-terminus and C-terminus assumed), the “MIC, A. baumannii ATCC 19606 (-)” value in the data set on A. baumannii ATCC 19606 turned out to be 16. Besides, in [1], the “MIC E. faecium ATCC 700221 – VRE (+)” value worked out at 8 µM (≈ 12.2 µg/mL) and the “MIC, E. faecium ATCC 700221 - VRE (+)” value worked out at 8. In the data set on E. coli AIC221, the “MIC E. coli AIC221 (−)” value stood at 64 µM (≈ 97.7 µg/mL) and the “MIC, E. coli AIC221 (-)” value stood at 64. In addition, in [2], the “MIC, E. coli AIC222 - CRE (-)” value was 64. Further, the “Laurdan generalized polarization change” value in the data set on A. baumannii is “pronounced increases in generalized polarization values over time”. The “HC50 (source data of Fig. 4)” value in [4] was found to be 203.9 µmol/L.
